# Measured values: patent US6355659B1, “4-(4-Chlorophenyl)-1236-tetrahydro-1(1H-124-triazol-1-yl)butty)pyrideine and salts thereof; pharmaceutical compositions and method of treating psychoses utilizing same” (Laboratorios Del Dr. Esteve, S.A., priority 1994, dated 2002)
# Structures can show the parent of a compound that is named as a salt. Where two headings read alike, the source gives them in different places.
# Legend:
# protein c-fos = test: Induction of the protein c-fos in various brain areas in the rat (Western blot); assay type: in vivo; details: sc; for activity at 30 mg/kg: rat, acute treatment, 30 mg/kg s.c.
# Text: Induction of the Protein c-fos in Various Brain Areas in the Rat
# Acute treatment with various antipsychotics is characterized by the induction of the protein c-fos, owing to the rapid induction off the c-fos gene in various areas of the limbic and extrapyramidal systems [M. Dragunow et al., Neuroscience, 1990, 37, 287-294; J. C. Miller, J. Neurochem., 1990, 54, 1453-1455; A. Y. Deutch et al., Mol. Cell. Neurosci., 1992, 3, 332-341; T. V. Nguyen et al., Proc. Natl. Acad. Sci. USA, 1992, 89, 4270-4274; G. S. Robertson and H. C. Fibinger, Neuroscience, 1992, 46, 315-328]. The patterns of induction of the protein depend on whether the antipsychotic is typical or atypical [G. S. Robertson et al., J. Pharmacol. Exp. Ther., 1994, 271, 1058-1066; G. S. Robertson and H. C. Fibinger, Neuroscience, 1992, 46, 315-328]. These changes in expression of c-fos can be investigated by extraction of the proteins from the brain areas of interest, and analysis of the levels by electrophoresis (Western blot).
# catalepsy = test: Induction of catalepsy in rats; assay type: in vivo; details: s.c.
# Text: The induction of catalepsy in rats [J. Robert et al., J. Pharmacol. Exp. Ther., 1986, 239, 124] is a parameter that is commonly employed for determining the ability of antipsychotics to induce extrapyramidal effects. The typical antipsychotics are those which, in spite of being very powerful in specific tests of antipsychotic activity, induce extrapyramidal effects, and this is detected in the catalepsy test. The best known of the typical antipsychotics is haloperidol, whereas the best known of the atypical antipsychotics is clozapine.
# 5-HT1A = target: T1, 5-HT1A (Homo sapiens, UniProt P08908); test: 5-HT1A receptor affinity; assay type: binding
# T1 sequence (P08908 1-422): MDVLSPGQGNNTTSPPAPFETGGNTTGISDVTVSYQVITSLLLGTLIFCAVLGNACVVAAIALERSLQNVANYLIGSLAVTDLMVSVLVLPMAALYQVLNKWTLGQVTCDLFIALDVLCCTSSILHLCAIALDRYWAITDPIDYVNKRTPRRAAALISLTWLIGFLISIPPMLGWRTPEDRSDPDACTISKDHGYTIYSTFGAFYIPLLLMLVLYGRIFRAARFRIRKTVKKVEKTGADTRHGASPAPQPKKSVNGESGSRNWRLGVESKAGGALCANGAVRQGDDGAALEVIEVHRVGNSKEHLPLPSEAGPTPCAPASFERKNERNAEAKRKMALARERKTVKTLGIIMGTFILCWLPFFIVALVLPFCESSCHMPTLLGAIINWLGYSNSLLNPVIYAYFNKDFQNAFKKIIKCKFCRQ
# SIGMA-1 (σ1) = SIGMA-1 (σ1) (Homo sapiens, UniProt Q99720); test: Sigma-1 receptor affinity; assay type: binding; details: SIGMA-1 (σ1) receptor
# Chain of SIGMA-1 (σ1) (Q99720 whole entry): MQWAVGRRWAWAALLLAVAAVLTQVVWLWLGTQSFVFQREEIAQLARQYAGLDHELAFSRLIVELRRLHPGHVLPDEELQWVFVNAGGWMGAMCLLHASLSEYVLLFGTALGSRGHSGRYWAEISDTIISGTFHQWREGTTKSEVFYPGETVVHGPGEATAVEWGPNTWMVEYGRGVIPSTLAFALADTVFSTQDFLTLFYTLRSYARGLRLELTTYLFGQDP
# SIGMA-2 (σ2) = SIGMA-2 (σ2) (Homo sapiens, UniProt Q5BJF2); test: Sigma-2 receptor affinity; assay type: binding; details: SIGMA-2 (σ2) receptor
# Chain of SIGMA-2 (σ2) (Q5BJF2 whole entry): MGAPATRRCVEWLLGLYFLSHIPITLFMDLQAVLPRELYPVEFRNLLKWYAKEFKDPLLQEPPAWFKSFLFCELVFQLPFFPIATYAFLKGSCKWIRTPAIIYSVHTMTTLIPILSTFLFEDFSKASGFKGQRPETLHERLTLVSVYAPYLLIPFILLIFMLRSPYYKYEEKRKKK
SMILES,"activity at 30 mg/kg (protein c-fos; read-out: Fos immunoreactivity % change relative to control, Dorsolateral groove) [%]","activity at 30 mg/kg (protein c-fos; read-out: Fos immunoreactivity % change relative to control, Medial area of prefrontal cortex) [%]","activity at 30 mg/kg (protein c-fos; read-out: Fos immunoreactivity % change relative to control, Nucleus accumbens) [%]","Induction of catalepsy, DE-50 (catalepsy)",Ki (5-HT1A) [nM],Ki (SIGMA-1 (σ1)) [nM],Ki (SIGMA-2 (σ2)) [nM],"activity at 20 mg/kg (protein c-fos; read-out: Fos immunoreactivity % change relative to control, Dorsolateral groove, rat, acute treatment, 20 mg/kg s.c., % of saline group) [%]","activity at 20 mg/kg (protein c-fos; read-out: Fos immunoreactivity % change relative to control, Medial area of prefrontal cortex, rat, acute treatment, 20 mg/kg s.c., % of saline group) [%]","activity at 20 mg/kg (protein c-fos; read-out: Fos immunoreactivity % change relative to control, Nucleus accumbens, rat, acute treatment, 20 mg/kg s.c., % of saline group) [%]","Induction of catalepsy, DE-50 (catalepsy; listed as haloperidol) [mg/kg]"
"CN1CCN(C2=Nc3cc(Cl)ccc3Nc3ccccc32)CC1 [Clozapine, clozapine]",110,134,118,Inactive up to 80 mg/kg,,,,,,,
"Clc1ccc(C2=CCN(CCCCn3cncn3)CC2)cc1 [Example 2, 4-(4-chlorophenyl)-1,2,3,6-tetrahydro-1-[4-(1H-1,2,4-triazol-1-yl)butyl]pyridine hydrochloride]",,,,,600,3.7,465,104,134,118,
"O=C(CCCN1CCC(O)(c2ccc(Cl)cc2)CC1)c1ccc(F)cc1 [Haloperidol, haloperidol]",,,,"DE-50 = 0.14 mg/kg,",,,,,,,0.14
